Consider 2 molecules from article PMC5862592, “CDK8/19 inhibition induces premature G1/S transition and ATR-dependent cell death in prostate cancer cells” (Oncotarget, 2018).

Read-outs that look alike come from different tables or passages of the source.

Holding throughout (experiment): biochemical
What all share (set-up): KINOMEscan active site-directed competition binding assay (DiscoveRx), 456 kinases, per cent of control at 300 nM
Common to all, as to details: read-out: Percent of Control (%)

Test [1] concerns the target ABL2 (Homo sapiens, UniProt P42684). In short, it runs like this:
(§1)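 Single-concentration selectivity screen: compound 300 nmol/L; 456-kinase panel; active-site-directed competition binding read-out.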

Test [2] addresses EGFR(L747-T751del,Sins) (Homo sapiens, UniProt P00533, DEL747-750/T751S). In short, it runs like this:
as §1

Test [3] has as its target EGFR(L858R,T790M) (Homo sapiens, UniProt P00533, L858R/T790M). In short, it runs like this: as §1
The target in test [4] is FGFR1 (Homo sapiens, UniProt P11362). In short, it runs like this:
as §1

Test [5] deals with T1, IKK-beta (Homo sapiens, UniProt O14920).
T1 construct: gene IKBKB
Summed up: as §1

Test [6] has as its target KIT(V559D,T670I) (Homo sapiens, UniProt P10721, T670I/V559D). In short, it runs like this:
as §1

The target of test [7] is T2, LKB1 (Homo sapiens, UniProt Q15831).
T2 construct: gene STK11
T2 sequence (Q15831 whole entry): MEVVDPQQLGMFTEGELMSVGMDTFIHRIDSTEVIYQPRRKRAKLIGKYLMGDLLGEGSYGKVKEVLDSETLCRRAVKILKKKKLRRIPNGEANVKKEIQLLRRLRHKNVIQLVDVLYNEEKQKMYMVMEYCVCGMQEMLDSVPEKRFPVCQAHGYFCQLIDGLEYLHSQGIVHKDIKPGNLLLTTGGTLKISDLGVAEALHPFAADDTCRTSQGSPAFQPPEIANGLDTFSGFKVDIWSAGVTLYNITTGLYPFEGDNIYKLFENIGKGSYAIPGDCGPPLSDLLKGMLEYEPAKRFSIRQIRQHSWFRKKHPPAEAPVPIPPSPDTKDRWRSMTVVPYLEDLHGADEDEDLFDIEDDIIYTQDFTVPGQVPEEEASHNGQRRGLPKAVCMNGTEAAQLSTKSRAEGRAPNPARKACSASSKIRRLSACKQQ
In short, it runs like this:
as §1

For test [8], the target named is LRRK2 (Homo sapiens, UniProt Q5S007). In short, it runs like this:
as §1

Test [9] has as its target MARK1 (Homo sapiens, UniProt Q9P0L2). Summed up:
as §1

For test [10], the target named is MERTK (Homo sapiens, UniProt Q12866). In short, it runs like this:
as §1

In test [11] the target is T3, MRCKA (Homo sapiens, UniProt Q5VT25).
T3 construct: gene CDC42BPA
In short, it runs like this:
as §1

In test [12] the target is T4, MST1 (Homo sapiens, UniProt Q13043).
T4 construct: gene STK4
T4 sequence (Q13043 whole entry): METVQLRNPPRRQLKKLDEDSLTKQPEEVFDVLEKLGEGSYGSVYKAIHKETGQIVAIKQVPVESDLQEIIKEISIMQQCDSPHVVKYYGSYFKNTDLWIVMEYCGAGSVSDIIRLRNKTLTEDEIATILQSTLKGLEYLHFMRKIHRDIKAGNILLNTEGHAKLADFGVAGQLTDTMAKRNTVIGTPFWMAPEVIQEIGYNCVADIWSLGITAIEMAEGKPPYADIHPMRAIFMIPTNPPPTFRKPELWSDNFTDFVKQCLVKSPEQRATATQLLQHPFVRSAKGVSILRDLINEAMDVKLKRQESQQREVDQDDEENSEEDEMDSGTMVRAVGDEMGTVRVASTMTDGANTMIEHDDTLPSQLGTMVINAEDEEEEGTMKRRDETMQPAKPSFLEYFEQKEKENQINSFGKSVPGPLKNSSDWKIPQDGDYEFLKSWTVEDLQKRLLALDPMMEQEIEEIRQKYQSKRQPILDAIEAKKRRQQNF
In short, it runs like this: as §1

For test [13], the target named is MUSK (Homo sapiens, UniProt O15146). Summed up:
as §1

For test [14], the target named is PIM1 (Homo sapiens, UniProt P11309). Summed up: as §1
PIM1, sequence (P11309 whole entry): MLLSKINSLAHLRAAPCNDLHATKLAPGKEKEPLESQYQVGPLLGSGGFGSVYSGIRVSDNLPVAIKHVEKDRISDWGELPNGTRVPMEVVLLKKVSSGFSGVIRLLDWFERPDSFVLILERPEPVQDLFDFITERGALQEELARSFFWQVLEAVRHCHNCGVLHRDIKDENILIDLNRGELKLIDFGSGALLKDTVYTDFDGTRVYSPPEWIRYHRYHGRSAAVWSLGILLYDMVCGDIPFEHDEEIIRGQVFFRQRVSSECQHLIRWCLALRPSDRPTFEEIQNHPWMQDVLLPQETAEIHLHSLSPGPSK
In test [15] the target is T5, PKAC-alpha (Homo sapiens, UniProt P17612).
T5 construct: gene PRKACA
Summed up: as §1

Test [16] addresses T6, QSK (Homo sapiens, UniProt Q9Y2K2).
T6 construct: gene SIK3
In short, it runs like this:
as §1

For test [17], the target named is T7, S6K1 (Homo sapiens, UniProt P23443).
T7 construct: gene RPS6KB1
In short, it runs like this: as §1

Test [18] has as its target T8, TRKC (Homo sapiens, UniProt Q16288).
T8 construct: gene NTRK3
Summed up: as §1

Test [19] has as its target TRPM6 (Homo sapiens, UniProt Q9BX84). Summed up: as §1
Test [20] deals with T9, TYK2(JH2domain-pseudokinase) (Homo sapiens, UniProt P29597).
T9 construct: JH2domain-pseudokinase
Summed up:
as §1

In test [21] the target is ULK3 (Homo sapiens, UniProt Q6PHR2). Summed up:
as §1

MARK1, sequence (Q9P0L2 whole entry): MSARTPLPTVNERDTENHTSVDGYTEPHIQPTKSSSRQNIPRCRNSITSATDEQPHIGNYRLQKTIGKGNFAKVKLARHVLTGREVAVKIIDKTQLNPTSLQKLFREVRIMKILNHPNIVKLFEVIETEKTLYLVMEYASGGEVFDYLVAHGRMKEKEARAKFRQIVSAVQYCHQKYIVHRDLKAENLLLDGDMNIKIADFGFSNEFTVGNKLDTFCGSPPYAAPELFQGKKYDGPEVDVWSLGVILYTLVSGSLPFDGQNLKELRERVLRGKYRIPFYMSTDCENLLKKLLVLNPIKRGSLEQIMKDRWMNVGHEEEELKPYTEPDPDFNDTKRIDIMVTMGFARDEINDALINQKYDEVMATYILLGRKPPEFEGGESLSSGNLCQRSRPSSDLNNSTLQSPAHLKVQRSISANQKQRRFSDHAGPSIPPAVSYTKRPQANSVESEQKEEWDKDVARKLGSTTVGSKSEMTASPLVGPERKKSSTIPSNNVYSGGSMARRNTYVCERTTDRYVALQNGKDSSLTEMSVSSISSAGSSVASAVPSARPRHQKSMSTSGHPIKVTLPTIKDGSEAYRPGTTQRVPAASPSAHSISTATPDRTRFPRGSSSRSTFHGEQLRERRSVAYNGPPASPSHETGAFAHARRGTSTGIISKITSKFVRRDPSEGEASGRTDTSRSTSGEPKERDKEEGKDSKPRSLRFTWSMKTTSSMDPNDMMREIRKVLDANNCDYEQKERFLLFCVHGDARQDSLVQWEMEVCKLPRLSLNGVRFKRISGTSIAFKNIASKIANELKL
FGFR1, sequence (P11362 whole entry): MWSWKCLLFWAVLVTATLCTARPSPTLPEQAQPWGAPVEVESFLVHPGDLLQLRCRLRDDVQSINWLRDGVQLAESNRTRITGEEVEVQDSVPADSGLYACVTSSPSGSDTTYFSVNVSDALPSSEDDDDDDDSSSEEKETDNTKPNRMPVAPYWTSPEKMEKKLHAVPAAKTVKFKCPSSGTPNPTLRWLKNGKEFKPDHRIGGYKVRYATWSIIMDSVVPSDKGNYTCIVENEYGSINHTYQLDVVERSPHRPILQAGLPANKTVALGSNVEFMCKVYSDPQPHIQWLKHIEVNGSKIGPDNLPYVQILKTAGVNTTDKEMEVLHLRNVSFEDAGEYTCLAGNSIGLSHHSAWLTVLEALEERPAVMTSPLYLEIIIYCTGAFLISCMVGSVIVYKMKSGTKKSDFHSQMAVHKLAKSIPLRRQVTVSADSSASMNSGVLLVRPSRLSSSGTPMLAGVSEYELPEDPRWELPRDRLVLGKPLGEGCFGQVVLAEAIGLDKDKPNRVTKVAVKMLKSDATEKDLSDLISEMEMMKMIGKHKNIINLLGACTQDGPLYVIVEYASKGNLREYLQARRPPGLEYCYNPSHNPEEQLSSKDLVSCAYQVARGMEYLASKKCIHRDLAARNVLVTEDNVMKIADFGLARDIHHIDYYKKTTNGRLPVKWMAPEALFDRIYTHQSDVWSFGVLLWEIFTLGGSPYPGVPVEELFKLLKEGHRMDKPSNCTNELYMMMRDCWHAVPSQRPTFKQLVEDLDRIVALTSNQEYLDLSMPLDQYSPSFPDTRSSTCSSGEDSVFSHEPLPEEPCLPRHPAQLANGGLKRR
MUSK, sequence (O15146 whole entry): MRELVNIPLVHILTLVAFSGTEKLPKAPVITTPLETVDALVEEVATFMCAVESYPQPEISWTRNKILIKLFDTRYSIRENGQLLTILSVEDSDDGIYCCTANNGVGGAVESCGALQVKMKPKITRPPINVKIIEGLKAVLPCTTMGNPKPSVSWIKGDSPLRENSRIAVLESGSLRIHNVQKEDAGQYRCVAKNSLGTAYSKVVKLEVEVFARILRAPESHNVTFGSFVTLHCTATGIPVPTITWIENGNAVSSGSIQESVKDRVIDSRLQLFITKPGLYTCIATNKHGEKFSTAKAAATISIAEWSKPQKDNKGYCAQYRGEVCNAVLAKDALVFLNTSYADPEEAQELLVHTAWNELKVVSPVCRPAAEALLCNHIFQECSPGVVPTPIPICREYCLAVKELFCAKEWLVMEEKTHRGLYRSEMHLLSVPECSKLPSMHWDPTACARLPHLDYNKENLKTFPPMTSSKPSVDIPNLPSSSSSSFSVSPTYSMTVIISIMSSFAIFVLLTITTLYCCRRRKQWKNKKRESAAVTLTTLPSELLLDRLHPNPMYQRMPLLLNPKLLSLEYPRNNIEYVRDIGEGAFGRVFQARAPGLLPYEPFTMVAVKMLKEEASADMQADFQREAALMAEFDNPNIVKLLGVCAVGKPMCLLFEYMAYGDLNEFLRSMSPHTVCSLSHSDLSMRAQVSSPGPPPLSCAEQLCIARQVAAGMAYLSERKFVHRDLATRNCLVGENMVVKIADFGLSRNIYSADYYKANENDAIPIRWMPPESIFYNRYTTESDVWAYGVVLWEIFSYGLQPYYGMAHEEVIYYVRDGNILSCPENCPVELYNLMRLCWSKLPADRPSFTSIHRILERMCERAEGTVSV
ABL2, sequence (P42684 whole entry): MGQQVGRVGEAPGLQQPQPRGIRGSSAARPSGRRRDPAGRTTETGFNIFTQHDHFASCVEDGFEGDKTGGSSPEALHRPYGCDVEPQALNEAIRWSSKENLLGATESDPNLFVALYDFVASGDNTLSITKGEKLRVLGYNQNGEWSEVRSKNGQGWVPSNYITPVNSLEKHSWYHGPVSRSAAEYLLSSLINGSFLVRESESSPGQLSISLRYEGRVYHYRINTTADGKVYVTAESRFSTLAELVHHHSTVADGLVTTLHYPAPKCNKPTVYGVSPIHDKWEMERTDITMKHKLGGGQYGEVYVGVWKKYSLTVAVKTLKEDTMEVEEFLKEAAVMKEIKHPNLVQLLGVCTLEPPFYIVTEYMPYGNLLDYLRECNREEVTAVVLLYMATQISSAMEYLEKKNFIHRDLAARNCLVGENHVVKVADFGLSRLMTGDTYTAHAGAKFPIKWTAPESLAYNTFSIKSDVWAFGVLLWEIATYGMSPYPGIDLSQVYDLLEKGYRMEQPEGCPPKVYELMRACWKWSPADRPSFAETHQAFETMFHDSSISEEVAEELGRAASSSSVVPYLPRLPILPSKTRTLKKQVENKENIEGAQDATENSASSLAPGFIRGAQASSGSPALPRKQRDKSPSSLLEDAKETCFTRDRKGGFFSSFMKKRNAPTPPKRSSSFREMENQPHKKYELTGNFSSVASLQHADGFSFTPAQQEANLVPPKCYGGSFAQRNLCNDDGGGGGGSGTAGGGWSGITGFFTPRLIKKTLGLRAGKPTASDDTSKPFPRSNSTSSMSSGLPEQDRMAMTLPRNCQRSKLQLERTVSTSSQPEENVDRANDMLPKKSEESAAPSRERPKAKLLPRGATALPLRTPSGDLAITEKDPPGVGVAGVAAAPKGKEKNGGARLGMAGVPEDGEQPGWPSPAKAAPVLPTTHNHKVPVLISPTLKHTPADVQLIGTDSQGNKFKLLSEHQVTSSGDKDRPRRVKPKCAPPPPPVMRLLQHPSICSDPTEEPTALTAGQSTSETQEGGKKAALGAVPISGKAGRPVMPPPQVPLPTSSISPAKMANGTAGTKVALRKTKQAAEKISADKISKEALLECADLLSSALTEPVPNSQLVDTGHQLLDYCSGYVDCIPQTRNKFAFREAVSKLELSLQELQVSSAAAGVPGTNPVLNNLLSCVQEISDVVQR

Turning to `Cc1ncccc1Oc1sc(C(N)=O)c2c1-c1c(cnn1C)CC2` [T-474, 1-methyl-8-((2-methylpyridin-3-yl)oxy)-4,5-dihydro-1H-thieno[3,4-g]indazole-6-carboxamide], the remaining binding at 0.3 µM in [1] was found to be 100%; in test [2] it was 87%; in test [3] it was 85%; in test [4] it was 95%; in test [5], 100%; in test [6], 100%. Further, the remaining binding at 0.3 µM in test [7] came to 67%; in test [8], 95%; in [9], 81%; in test [10] it was 100%; in [11], 100%; in test [12] it was 100%. The remaining binding at 0.3 µM in test [13] was found to be 100%; in test [14], 92%; in [15], 90%; in [16], 93%; in test [17], 100%; in [18], 87%. The values for the remaining binding at 0.3 µM in test [19], in test [20] and in test [21] were 95%, 100% and 20%, respectively.

For `O=C(/C=C/c1cnccc1-c1ccc(F)cc1)Nc1ccc(CCc2nnco2)cc1` [T-418, (2E)-3-(4-(4-fluorophenyl)pyridin-3-yl)-N-(4-(2-(1,3,4-oxadiazol-2-yl)ethyl)phenyl)acrylamide], the remaining binding at 0.3 µM in [1] (sheet T-418) was determined as 90%; in test [2] (sheet T-418) it was 100%; in test [3] (sheet T-418), 98%; in test [4] (sheet T-418), 100%; in test [5] (sheet T-418), 100%; in test [6] (sheet T-418), 77%. Moreover, the remaining binding at 0.3 µM in test [7] (sheet T-418) was found to be 53%; in test [8] (sheet T-418) it was 94%; in test [9] (sheet T-418), 100%; in test [10] (sheet T-418), 100%; in [11] (sheet T-418) it was 100%; in [12] (sheet T-418), 89%. Further, the remaining binding at 0.3 µM in [13] (sheet T-418) came to 100%; in test [14] (sheet T-418) it was 75%; in test [15] (sheet T-418) it was 66%; in test [16] (sheet T-418), 95%; in [17] (sheet T-418), 100%; in test [18] (sheet T-418), 82%. In addition, the remaining binding at 0.3 µM worked out at 90% in test [19] (sheet T-418), 100% in [20] (sheet T-418) and 20% in test [21] (sheet T-418).
